From PubChem BioAssay (NCI)
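Protocol summary: plate cells (96-well), add compound at 5 concentrations, incubate 48 h, interpolate endpoints linearly. TGI marks complete inhibition of growth.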

Tests used:
Test in all cases: NCI tumour cell line growth inhibition, 48 h
[1] = system: 786-0 renal
[2] = system: A498 renal
[3] = system: A549 NSCLC
[4] = system: ACHN renal
[5] = system: CCRF-CEM leukemia
[6] = system: COLO 205 colon
[7] = system: DLD-1 colon
[8] = system: DMS 114 small cell lung
[9] = system: DMS 273 small cell lung
[10] = system: EKVX NSCLC
[11] = system: HCC-2998 colon
[12] = system: HCT-116 colon
[13] = system: HCT-15 colon
[14] = system: HL-60(TB) leukemia
[15] = system: HOP-62 NSCLC
[16] = system: HOP-92 NSCLC
[17] = system: HT29 colon
[18] = system: IGROV1 ovarian
[19] = system: K-562 leukemia
[20] = system: KM12 colon
[21] = system: LOX IMVI melanoma
[22] = system: LXFL 529 NSCLC
[23] = system: M14 melanoma
[24] = system: M19-MEL melanoma
[25] = system: MALME-3M melanoma
[26] = system: MOLT-4 leukemia
[27] = system: NCI-H23 lung
[28] = system: NCI-H460 lung
[29] = system: OVCAR-3 ovarian
[30] = system: OVCAR-4 ovarian
[31] = system: OVCAR-8 ovarian
[32] = system: RPMI-8226 leukemia
[33] = system: RXF 393 renal
[34] = system: RXF-631 renal
[35] = system: SF-268 CNS
[36] = system: SF-295 CNS
[37] = system: SF-539 CNS
[38] = system: SK-MEL-2 melanoma
[39] = system: SK-MEL-28 melanoma
[40] = system: SK-MEL-5 melanoma
[41] = system: SK-OV-3 ovarian
[42] = system: SN12C renal
[43] = system: SNB-75 CNS
[44] = system: SNB-78 CNS
[45] = system: SR leukemia
[46] = system: SW-620 colon
[47] = system: TK-10 renal
[48] = system: U251 CNS
[49] = system: UACC-257 melanoma
[50] = system: UACC-62 melanoma
[51] = system: XF 498 CNS
[52] = system: CAKI-1 renal
[53] = system: KM20L2 colon
[54] = system: NCI-H226 lung
[55] = system: NCI-H522 lung
[56] = system: OVCAR-5 ovarian
[57] = system: SNB-19 CNS
[58] = system: UO-31 renal

## Nc1ccc(C(c2ccccc2)(c2ccccc2)c2ccccc2)cc1
[1]
  TGI: > 100 µM
[2]
  TGI: > 100 µM
[3]
  TGI: > 100 µM
[4]
  TGI: > 100 µM
[5]
  TGI: > 100 µM
[6]
  TGI: > 100 µM
[7]
  TGI: > 100 µM
[8]
  TGI: > 100 µM
[9]
  TGI: > 100 µM
[10]
  TGI: > 100 µM
[11]
  TGI: > 100 µM
[12]
  TGI: > 100 µM
[13]
  TGI: > 100 µM
[14]
  TGI: 91.6 µM
[15]
  TGI: 75.8 µM
[16]
  TGI: 31.1 µM
[17]
  TGI: > 100 µM
[18]
  TGI: > 100 µM
[19]
  TGI: > 100 µM
[20]
  TGI: > 100 µM
[21]
  TGI: > 100 µM
[22]
  TGI: > 100 µM
[23]
  TGI: 30.1 µM
[24]
  TGI: > 100 µM
[25]
  TGI: > 100 µM
[26]
  TGI: > 100 µM
[27]
  TGI: 88.4 µM
[28]
  TGI: > 100 µM
[29]
  TGI: > 100 µM
[30]
  TGI: > 100 µM
[31]
  TGI: > 100 µM
[32]
  TGI: > 100 µM
[33]
  TGI: 56 µM
[34]
  TGI: > 100 µM
[35]
  TGI: > 100 µM
[36]
  TGI: 34.4 µM
[37]
  TGI: > 100 µM
[38]
  TGI: > 100 µM
[39]
  TGI: 56.1 µM
[40]
  TGI: > 100 µM
[41]
  TGI: 35.7 µM
[42]
  TGI: > 100 µM
[43]
  TGI: 53.9 µM
[44]
  TGI: 77 µM
[45]
  TGI: > 100 µM
[46]
  TGI: > 100 µM
[47]
  TGI: 95.3 µM
[48]
  TGI: 62.1 µM
[49]
  TGI: > 100 µM
[50]
  TGI: 41.3 µM
[51]
  TGI: 41.1 µM

## Cc1cc(N(CCC#N)CCC#N)ccc1/C=C\C(=O)Nc1ccccc1
[1]
  TGI: > 100 µM
[2]
  TGI: > 100 µM
[3]
  TGI: > 100 µM
[4]
  TGI: > 100 µM
[52]
  TGI: > 100 µM
[5]
  TGI: > 100 µM
[6]
  TGI: > 100 µM
[7]
  TGI: > 100 µM
[8]
  TGI: > 100 µM
[9]
  TGI: > 100 µM
[10]
  TGI: > 100 µM
[11]
  TGI: 80.5 µM
[12]
  TGI: > 100 µM
[13]
  TGI: > 100 µM
[14]
  TGI: > 100 µM
[15]
  TGI: > 100 µM
[16]
  TGI: > 100 µM
[17]
  TGI: > 100 µM
[18]
  TGI: > 100 µM
[19]
  TGI: > 100 µM
[20]
  TGI: > 100 µM
[53]
  TGI: > 100 µM
[21]
  TGI: > 100 µM
[22]
  TGI: > 100 µM
[23]
  TGI: > 100 µM
[24]
  TGI: > 100 µM
[25]
  TGI: > 100 µM
[26]
  TGI: > 100 µM
[54]
  TGI: > 100 µM
[27]
  TGI: > 100 µM
[28]
  TGI: > 100 µM
[55]
  TGI: > 100 µM
[29]
  TGI: > 100 µM
[30]
  TGI: > 100 µM
[56]
  TGI: > 100 µM
[31]
  TGI: > 100 µM
[32]
  TGI: > 100 µM
[34]
  TGI: > 100 µM
[35]
  TGI: > 100 µM
[36]
  TGI: > 100 µM
[37]
  TGI: > 100 µM
[38]
  TGI: > 100 µM
[39]
  TGI: > 100 µM
[40]
  TGI: > 100 µM
[41]
  TGI: > 100 µM
[42]
  TGI: > 100 µM
[57]
  TGI: > 100 µM
[43]
  TGI: > 100 µM
[46]
  TGI: > 100 µM
[47]
  TGI: > 100 µM
[48]
  TGI: > 100 µM
[49]
  TGI: > 100 µM
[50]
  TGI: > 100 µM
[58]
  TGI: > 100 µM
[51]
  TGI: > 100 µM
